Values belong to the molecule of their own block, whether it stands above or below them.
Columns and labels:
THP-1 xenograft = assay: THP-1 leukemia xenograft model; format: in vivo, CB.17 SCID mice; conditions: 120 mg/kg PO twice per day, 5 days per week, 4 weeks
Method: Six to seven weeks old male CB.17 SCID mice were purchased from BioLasco Taiwan Co., LTD. and quarantined for one week. During experiment period, 5 mice will be housed in one cage. All animals will be hosted in the Da-Hu animal facility in a 12-h light/12-h dark cycle at 19-25° C. Animals have free access to rodent pellet food and water ad libitum. The experimental protocol of animal study was reviewed and approved by the Institutional Animal Care and Use Committee, DCB. Compound 1 was diluted in olive oil to final concentrations of 12 mg/mL.
Tumor cell line: THP-1 cells (leukemia) were cultured in RPMI-1640 medium or DMEM medium which supplemented with 10% heat inactivated fetal bovine serum. The cells were cultured in tissue culture flasks in a humidified incubator at 37° C., in an atmosphere of 5% CO2 and 95% air.
The human cancer cells used for implantation were harvested during log phase growth and resuspended in phosphate buffered saline to a concentration containing 2×10^7 cells/mL of THP-1, in 0.1 mL of a 50% Matrigel solution (BD Biosciences, MA, USA). […] Volume was calculated using the formula: Tumor Volume=(w^2×l)/2 where w=width and l=length in diameter (mm) of the tumor. […]
Tumors were measured twice per week using calipers. […] The body weight change was calculated as the percentage increase in body weight compared to the initial body weight. […]

H838 = assay: CCK-8 cell viability assay, H838; format: cell-based; conditions: Homo sapiens, NCI-H838, 48 h, 48 h treatment; means ± S.E.M.
Method: Human hepatoma (HepG2, Hep3B), human lung adenocarcinoma (A549, H838), and human myelogenous leukemia (K562) cell lines were obtained from American Type Culture Collection (Rockville, Md., USA). Human prostate cancer cell lines (LNCaP and DU145), human breast carcinoma (MCF-7), human bladder carcinoma (TSGH 8301) and human pancreas adenocarcinoma (BxPC-3) were obtained from BCRC (Bioresource Collection and Research Center, Hsinchu, Taiwan). HepG2, DU145 and MCF-7 cell lines were cultured in Minimum Essential Medium Alpha (Invitrogen/Gibco BRL, Grand Island, N.Y., USA). A549 cells were cultured in Dulbecco's modified Eagle's medium (Invitrogen/Gibco BRL). […]
Cell viability was measured using Cell Counting Kit-8 (CCK-8, Enzo Life Sciences, Farmingdale, N.Y.). […] The concentration of formazan was measured with a spectrophotometer at an absorbance wavelength of 450 nm. Cell viability was expressed as a percentage of the corresponding control.
To determine whether the cytotoxic effects of Compound 1 correlate with the presence of Ras mutations, cell lines derived from human lung cancer (A549 and H838), liver cancer (HepG2 and Hep3B), and leukemia (K562 and THP-1) with wild-type Ras (H838, Hep3B, and K562) or mutant Ras (A549, HepG2, and THP-1) were used. Cell viability was measured after 48 h of Compound 1 treatment.

Ras = assay: Immunoblot of unprocessed and processed Ras in cancer cell lines; format: cell-based, human; conditions: H838 cells, 24 h
Method: FIG. 2A-C show illustrative effective results of the exemplary Compound 1 inhibiting Ras processing in cancer cell lines. (2A) A549 and H838 cells were treated with different concentrations of Compound 1 and grown under serum (10% FBS) or serum-free (no FBS) conditions for 24 h. (2B) H838, (2C) HepG2 and K562 cells were treated with different concentrations of Compound 1 and grown under serum-free (no FBS) conditions for 24 h. Whole cell lysates were then immunoblotted with a Ras antibody. A duplicate membrane was probed with a GAPDH antibody. The relative expression level of unprocessed to processed Ras was quantified by densitometry. The experiments were conducted three times. […]
FIG. 3A-C show illustrative effective results of Compound 1 inhibiting the prenylation activity of farnesyltransferase in vitro and competes with FPP within cells. […] The relative expression level of unprocessed to processed Ras was quantified by densitometry. […]
Sixty micrograms of total protein lysates measured using a Bradford assay (Sigma-Aldrich, St. Louis, Mo., USA) were resolved on 12.5% SDS-polyacrylamide gels. […] Secondary antibodies were conjugated to horseradish peroxidase, which was detected using a 3,3′-diaminobenzidine substrate kit (Vector Laboratories, Burlingame, Calif.). The immunoreactive bands were quantified by densitometry using Image-Pro Plus software (Media Cybernetics, Silver Spring, Md.). […]

Compound: COC1=C(OC)C(O)C(C/C=C(\C)CC/C=C(\C)CCC=C(C)C)C(C)C1=O (stereo not shown) [Compound 1, 4-hydroxy-2,3-dimethoxy-6-methyl-5-(3,7,11-trimethyldodeca-2,6,10-trienyl)cyclohex-2-enone]
body weight (THP-1 xenograft): almost no body weight changes

IC50 (H838): 22.6 ± 6.45 µM
Compound: COC1=C(OC)C(=O)C(C/C=C(\C)CC/C=C(\C)CCC=C(C)C)=C(C)C1=O [Compound 25, 2,3-dimethoxy-5-methyl-6-((2E,6E)-3,7,11-trimethyldodeca-2,6,10-trienyl)cyclohexa-2,5-diene-1,4-dione]

Compound: CC(C)=CCC/C(C)=C/CC/C(C)=C/COP(=O)(O)OP(=O)(O)O [FPP]
Ras processing, agent alone (Ras): potentiated Ras processing
FPP concentration neutralizing the effect of Compound 1 on Ras processing (Ras; competition assay): ≥ 10 µM

Source: patent US9403747B2, “Methods and compositions for treating leukemia” (Golden Biotechnology Corporation, priority 2013, dated 2016)
